# Test results as given in PubChem BioAssay AID330 (DTP/NCI, 2004).
# Values joined by “and” are separate entries in the source; they are usually repeats but may differ in a detail not shown here. Equal entries are not always repeated. Toxic doses and inconclusive results are not listed.
# Tested on: P388 leukemia ip, CD2F1 mice, survival T/C
# Experiment: NCI In Vivo Anticancer Drug Screen. Data for tumor model P388 Leukemia (intraperitoneal) in CD2F1 (CDF1) mice
# Details: endpoint: median survival time, higher = longer survival
# Outline: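 Mice carrying the transplanted tumor received test compound or vehicle. Survival was recorded in each group, and the value is the treated-group measurement divided by that of the vehicle-treated control group.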
# [1] = dose: 50.0 mg/kg/injection, schedule: Q01DX005 (ip), vehicle: Klucel (hydroxypropylcellulose) (HPC)
# [2] = dose: 100.0 mg/kg/injection, schedule: Q01DX005 (ip), vehicle: Klucel (hydroxypropylcellulose) (HPC)
# [3] = dose: 25.0 mg/kg/injection, schedule: Q04DX002 (ip), vehicle: Klucel (hydroxypropylcellulose) (HPC)
# [4] = dose: 50.0 mg/kg/injection, schedule: Q04DX002 (ip), vehicle: Klucel (hydroxypropylcellulose) (HPC)
# [5] = dose: 100.0 mg/kg/injection, schedule: Q04DX002 (ip), vehicle: Klucel (hydroxypropylcellulose) (HPC)
compound,measurement,setting,value
O=C(Oc1ccccc1)c1ccc([N+](=O)[O-])cc1,T/C,"dose: 25.0 mg/kg/injection, schedule: Q01DX005 (ip), vehicle: Klucel (hydroxypropylcellulose) (HPC)",100 % of control
same,T/C,[1],105 % of control
same,T/C,[2],101 % of control
same,T/C,"dose: 200.0 mg/kg/injection, schedule: Q01DX005 (ip), vehicle: Klucel (hydroxypropylcellulose) (HPC)",104 % of control
[Cl][Pt+2][Cl].[NH-]C(c1ccccc1)C([NH-])c1ccccc1 (stereo not drawn),T/C,"dose: 1.56 mg/kg/injection, schedule: Q04DX002 (ip), vehicle: saline with Tween-80",112 % of control
same,T/C,"dose: 3.12 mg/kg/injection, schedule: Q04DX002 (ip), vehicle: saline with Tween-80",103 % of control
same,T/C,"dose: 3.13 mg/kg/injection, schedule: Q04DX002 (ip), vehicle: saline with Tween-80",111 % of control
same,T/C,"dose: 6.25 mg/kg/injection, schedule: Q04DX002 (ip), vehicle: saline with Tween-80",117 % of control [middle of 4 runs]
[Cl][Sn]([CH2][Sn]([Cl])([c]1ccccc1)[c]1ccccc1)([c]1ccccc1)[c]1ccccc1,T/C,"dose: 0.39 mg/kg/injection, schedule: Q01DX005 (ip), vehicle: Klucel (hydroxypropylcellulose) (HPC)",103 % of control
same,T/C,"dose: 0.79 mg/kg/injection, schedule: Q01DX005 (ip), vehicle: Klucel (hydroxypropylcellulose) (HPC)",104 % of control
same,T/C,"dose: 1.56 mg/kg/injection, schedule: Q01DX005 (ip), vehicle: Klucel (hydroxypropylcellulose) (HPC)",106 % of control
same,T/C,"dose: 3.12 mg/kg/injection, schedule: Q01DX005 (ip), vehicle: Klucel (hydroxypropylcellulose) (HPC)",97 % of control
same,T/C,"dose: 12.5 mg/kg/injection, schedule: Q01DX005 (ip), vehicle: Klucel (hydroxypropylcellulose) (HPC)",116 % of control
O=S(=O)(Cc1ccccc1)c1ccccc1,T/C,"dose: 50.0 mg/kg/injection, schedule: Q01DX009 (ip), vehicle: saline",118 % of control
same,T/C,"dose: 100.0 mg/kg/injection, schedule: Q01DX009 (ip), vehicle: saline",118 % of control
same,T/C,"dose: 200.0 mg/kg/injection, schedule: Q01DX009 (ip), vehicle: saline",116 % of control
N#[N+]c1c([O-])ccc2ccccc12,T/C,[3],92 % of control
same,T/C,[4],104 % of control
same,T/C,[5],90 % of control
CCCN(CCC)/N=C/c1c2c(O)c3c(O)c(C)c4c(c3c1O)C(=O)C(C)(O/C=C/C(OC)C(C)C(OC(C)=O)C(C)C(O)C(C)C(O)C(C)/C=C/C=C(C)C(=O)N2)O4 (stereo not drawn),T/C,"dose: 60.0 mg/kg/injection, schedule: Q01DX005 (ip), vehicle: Klucel (hydroxypropylcellulose) (HPC)",110 % of control
same,T/C,"dose: 120.0 mg/kg/injection, schedule: Q01DX005 (ip), vehicle: Klucel (hydroxypropylcellulose) (HPC)",122 % of control
COC(=O)C(Cl)(Cl)C1(c2ccccc2)OCC(C)(C)N1C(=O)C(Cl)Cl (stereo not drawn),T/C,"dose: 100.0 mg/kg/injection, schedule: Q01DX001 (ip), vehicle: saline with Tween-80",100 % of control
same,T/C,"dose: 200.0 mg/kg/injection, schedule: Q01DX001 (ip), vehicle: saline with Tween-80",100 % of control
same,T/C,"dose: 400.0 mg/kg/injection, schedule: Q01DX001 (ip), vehicle: saline with Tween-80",100 % of control
CCCCOC(C(=O)OCCN(CC)CC)(c1ccccc1)c1ccccc1,T/C,[1],108 % of control
same,T/C,[2],100 % of control
BrN=C1C=CC(=NBr)C=C1,T/C,"dose: 50.0 mg/kg/injection, schedule: Q01DX005 (ip), vehicle: saline with Tween-80",100 % of control (2×) and 106 % of control
same,T/C,"dose: 100.0 mg/kg/injection, schedule: Q01DX005 (ip), vehicle: saline with Tween-80",101 % of control and 106 % of control and 91 % of control
same,T/C,"dose: 200.0 mg/kg/injection, schedule: Q01DX005 (ip), vehicle: saline with Tween-80",101 % of control and 106 % of control and 120 % of control
same,T/C,"dose: 400.0 mg/kg/injection, schedule: Q01DX005 (ip), vehicle: saline with Tween-80",89 % of control and 90 % of control
C/C=C(\CCNCCCC)[Si](C)(C)C,T/C,"dose: 100.0 mg/kg/injection, schedule: Q04DX002 (ip), vehicle: saline",104 % of control
same,T/C,"dose: 200.0 mg/kg/injection, schedule: Q04DX002 (ip), vehicle: saline",101 % of control
CC(=O)OCC#CCN1CCOCC1,T/C,"dose: 50.0 mg/kg/injection, schedule: Q01DX005 (ip), vehicle: saline",124 % of control
same,T/C,"dose: 60.0 mg/kg/injection, schedule: Q01DX005 (ip), vehicle: suspension in saline",102 % of control
same,T/C,"dose: 120.0 mg/kg/injection, schedule: Q01DX005 (ip), vehicle: suspension in saline",100 % of control
OCC1OC(n2cnc3cc(Cl)c(Cl)cc32)C(O)C1O (stereo not drawn),T/C,"dose: 8.0 mg/kg/injection, schedule: Q03HX024 (ip), vehicle: saline with Tween-80",96 % of control
same,T/C,"dose: 16.0 mg/kg/injection, schedule: Q03HX024 (ip), vehicle: saline with Tween-80",99 % of control
same,T/C,"dose: 20.0 mg/kg/injection, schedule: Q04DX003 (ip), vehicle: other",95 % of control
same,T/C,"dose: 20.0 mg/kg/injection, schedule: Q04DX003 (oral), vehicle: other",103 % of control
same,T/C,"dose: 25.0 mg/kg/injection, schedule: Q01DX009 (ip), vehicle: saline with Tween-80",93 % of control
same,T/C,"dose: 32.0 mg/kg/injection, schedule: Q03HX024 (ip), vehicle: saline with Tween-80",114 % of control and 116 % of control
same,T/C,"dose: 40.0 mg/kg/injection, schedule: Q04DX003 (ip), vehicle: other",100 % of control
same,T/C,"dose: 40.0 mg/kg/injection, schedule: Q04DX003 (oral), vehicle: other",100 % of control
same,T/C,"dose: 50.0 mg/kg/injection, schedule: Q01DX009 (ip), vehicle: saline with Tween-80",106 % of control
same,T/C,"dose: 80.0 mg/kg/injection, schedule: Q04DX003 (ip), vehicle: other",95 % of control
same,T/C,"dose: 80.0 mg/kg/injection, schedule: Q04DX003 (oral), vehicle: other",103 % of control
same,T/C,"dose: 100.0 mg/kg/injection, schedule: Q01DX009 (ip), vehicle: saline with Tween-80",123 % of control
same,T/C,"dose: 160.0 mg/kg/injection, schedule: Q04DX003 (ip), vehicle: other",110 % of control
same,T/C,"dose: 160.0 mg/kg/injection, schedule: Q04DX003 (oral), vehicle: other",100 % of control
same,T/C,"dose: 200.0 mg/kg/injection, schedule: Q01DX009 (ip), vehicle: saline with Tween-80",160 % of control
same,T/C,"dose: 320.0 mg/kg/injection, schedule: Q04DX003 (ip), vehicle: other",119 % of control
same,T/C,"dose: 320.0 mg/kg/injection, schedule: Q04DX003 (oral), vehicle: other",107 % of control
same,T/C,"dose: 640.0 mg/kg/injection, schedule: Q04DX003 (oral), vehicle: other",100 % of control
CSC(=Nc1nc2ccc([N+](=O)[O-])cc2s1)SC,T/C,"dose: 6.25 mg/kg/injection, schedule: Q01DX009 (ip), vehicle: Klucel (hydroxypropylcellulose) (HPC)",101 % of control
same,T/C,"dose: 12.5 mg/kg/injection, schedule: Q01DX009 (ip), vehicle: Klucel (hydroxypropylcellulose) (HPC)",103 % of control
same,T/C,"dose: 25.0 mg/kg/injection, schedule: Q01DX009 (ip), vehicle: Klucel (hydroxypropylcellulose) (HPC)",103 % of control
O=C(O)CCCCCCCCCCC1C=CCC1 (stereo not drawn),T/C,"dose: 100.0 mg/kg/injection, schedule: Q04DX003 (ip), vehicle: saline",93 % of control
same,T/C,"dose: 200.0 mg/kg/injection, schedule: Q04DX003 (ip), vehicle: saline",93 % of control
same,T/C,"dose: 400.0 mg/kg/injection, schedule: Q04DX003 (ip), vehicle: saline",93 % of control
Cc1nn(-c2ccc(Cl)cc2)c2nc(N)nc(N)c12,T/C,"dose: 6.25 mg/kg/injection, schedule: Q04DX002 (ip), vehicle: Klucel (hydroxypropylcellulose) (HPC)",92 % of control
same,T/C,"dose: 12.5 mg/kg/injection, schedule: Q04DX002 (ip), vehicle: Klucel (hydroxypropylcellulose) (HPC)",89 % of control and 93 % of control
same,T/C,[3],92 % of control
same,T/C,[4],89 % of control
same,T/C,[5],105 % of control
same,T/C,"dose: 200.0 mg/kg/injection, schedule: Q04DX002 (ip), vehicle: Klucel (hydroxypropylcellulose) (HPC)",115 % of control
same,T/C,"dose: 400.0 mg/kg/injection, schedule: Q04DX002 (ip), vehicle: Klucel (hydroxypropylcellulose) (HPC)",113 % of control
O=C(/C=C\c1ccc(C2OCCO2)cc1)c1ccccc1,T/C,"dose: 100.0 mg/kg/injection, schedule: Q04DX002 (ip), vehicle: saline with Tween-80",111 % of control
same,T/C,"dose: 200.0 mg/kg/injection, schedule: Q04DX002 (ip), vehicle: saline with Tween-80",103 % of control
same,T/C,"dose: 400.0 mg/kg/injection, schedule: Q04DX002 (ip), vehicle: saline with Tween-80",92 % of control
OB(O)c1ccc(B(O)O)cc1,T/C,"dose: 50.0 mg/kg/injection, schedule: Q01DX009 (ip), vehicle: Klucel (hydroxypropylcellulose) (HPC)",104 % of control
same,T/C,"dose: 100.0 mg/kg/injection, schedule: Q01DX009 (ip), vehicle: Klucel (hydroxypropylcellulose) (HPC)",103 % of control
same,T/C,"dose: 200.0 mg/kg/injection, schedule: Q01DX009 (ip), vehicle: Klucel (hydroxypropylcellulose) (HPC)",95 % of control
same,T/C,"dose: 400.0 mg/kg/injection, schedule: Q01DX009 (ip), vehicle: Klucel (hydroxypropylcellulose) (HPC)",104 % of control
